Source: publication PMC7588843 (Bioactive Materials, 2020)
Values after ≈ are worked out from the molar mass of the structure shown.

Key:
[1] = system: P. falciparum W2 (CQ-resistant) strain; assay: P. falciparum drug susceptibility assay; type: cell-based; conditions: for SIW2: IC50(NHDF)/IC50(W2); for IC50: Plasmodium falciparum, W2, 72 h, read-out: P. falciparum IC50 W2; for RI (resistance index): ratio of IC50 against W2 and D10 strains
human erythrocytes [2] = assay: Hemolytic activity in the presence of 10 μM FP; type: cell-based; conditions: for Hemolysis of human erythrocytes in the presence of FP: 50 and 100 μM, 2 h, 37 °C
[3] = system: P. falciparum D10 (CQ-sensitive) strain; assay: P. falciparum drug susceptibility assay; type: cell-based; conditions: for IC50: Plasmodium falciparum, D10, 72 h, read-out: P. falciparum IC50 D10; for SID10: IC50(NHDF)/IC50(D10)
human erythrocytes [4] = assay: Hemolytic activity without FP; type: cell-based; conditions: 50 and 100 μM, 2 h, 37 °C
Cytotoxic activity test = type: cell-based, human; conditions: human, NHDF cells
[5] = In vivo pharmacokinetic evaluation in mice
NHDF cells = assay: Cytotoxic activity test; type: cell-based, human; conditions: 24 and 48 h, MTT, up to twice the IC50 for P. falciparum
[6] = male, CD-1, mouse, plasma, po, 0.02 mg/kg

SMILES	SIW2 [1]	IC50 [1] [µg/mL]	Hemolysis of human erythrocytes in the presence of FP (human erythrocytes [2])	IC50 [3] [µg/mL]	RI (resistance index) [1]	SID10 [3]	Hemolysis of human erythrocytes without FP (human erythrocytes [4])	IC50 (Cytotoxic activity test) [µg/mL]	also measured
CCN(CC)CCCC(C)Nc1ccnc2cc(Cl)ccc12 (stereo not shown) [CQ, chloroquine diphosphate, reference compound]	80.5	0.262 ± 0.102	drastically increased the percentage of hemolysis	0.0184 ± 0.008	–	–	–	–	–
c1ccc2c(c1)[nH]c1ncccc12 [Compound 1, 9H-1-azacarbazole]	–	> 5	–	> 5	–	–	–	–	–
c1ccc2c(c1)[nH]c1cnccc12 [Compound 2, 9H-2-azacarbazole]	10.9	3.67 ± 0.708 (≈ 21.8 µM)	drastically increased the percentage of hemolysis	3.33 ± 0.742 (≈ 19.8 µM)	1.1	12.0	None of the examined agents caused significant lysis	40 ± 1.11 (≈ 238 µM)	–
c1ccc2c(c1)[nH]c1ccncc12 [Compound 3, 9H-3-azacarbazole]	14.4	2.22 ± 0.752 (≈ 13.2 µM)	drastically increased the percentage of hemolysis	1.95 ± 0.263 (≈ 11.6 µM)	1.1	16.4	None of the examined agents caused significant lysis	32 ± 1.43 (≈ 191 µM)	AUC(0-t) [5, 6]: 1 ng·h/mL; CL/F [5, 6]: 194 mL/min/kg; Cmax [5, 6]: 4.67 ng/mL; MRT [5, 6]: 1.28 h; Vd/F [5, 6]: 19.7 L/kg; k el [5, 6]: 0.000165 s⁻¹; Tmax ([5]; male, CD-1, mouse, plasma, po, 0.02 mg/kg, tmax, mice, i.g., 0.02 mg/kg in 3-NE): ≤ 5 min; time plasma concentrations detectable after administration ([5]; mice, i.g., 0.02 mg/kg in 3-NE): at least 8 h; t0.5 ([5]; mice, i.g., 0.02 mg/kg in 3-NE, plasma, 0.02 mg/kg): 70.33 min; NHDF cell viability (NHDF cells): negligible effect on cell viability
Cc1cccc2c1[nH]c1ncccc12 [Compound 4, 8-methyl-9H-1-azacarbazole]	–	> 5	–	> 5	–	–	–	–	–
Cc1ccc2[nH]c3ncccc3c2c1 [Compound 5, 6-methyl-9H-1-azacarbazole]	–	> 5	–	> 5	–	–	–	–	–
Cc1ccn(C)c2nc3ccccc3c1-2 [Compound 6, 1,4-dimethyl-1H-1-azacarbazole]	2.8	4.18 ± 1.04 (≈ 21.3 µM)	drastically increased the percentage of hemolysis	4.42 ± 0.458 (≈ 22.5 µM)	0.9	2.6	None of the examined agents caused significant lysis	11.8 ± 0.144 (≈ 59.9 µM)	Hemolysis with FP compared with CQ-FP, 50 μM (human erythrocytes [2]): less hemolytic than CQ-FP complexes
c1cnc2[nH]c3ncccc3c2c1 [Compound 7, 9H-1,8-diazacarbazole]	–	> 5	–	> 5	–	–	–	–	–
c1cc2c(cn1)[nH]c1cnccc12 [Compound 8, 9H-2,7-diazacarbazole]	–	> 5	–	> 5	–	–	–	–	–
c1cnc2c(c1)[nH]c1ncccc12 [Compound 9, 9H-1,5-diazacarbazole]	–	> 5	–	> 5	–	–	–	–	–
c1cnc2c(c1)[nH]c1cccnc12 [Compound 10, 9H-4,5-diazacarbazole]	–	> 5	–	> 5	–	–	–	–	–
Cn1cccc2c3cccnc3nc1-2 [Compound 11, 1-methyl-1H-1,8-diazacarbazole]	–	> 5	–	> 5	–	–	–	–	–
Cn1cccc2nc3cccnc3c1-2 [Compound 12, 4-methyl-4H-4,5-diazacarbazole]	10.7	3.99 ± 0.269 (≈ 21.8 µM)	–	3.16 ± 0.621 (≈ 17.3 µM)	1.3	13.5	None of the examined agents caused significant lysis	42.8 ± 3.31 (≈ 234 µM)	Hemolysis with FP compared with CQ-FP, 50 μM (human erythrocytes [2]): less hemolytic than CQ-FP complexes; Hemolysis with FP compared with CQ-FP, 100 μM (human erythrocytes [2]; 100 μM): less hemolytic than CQ-FP complexes
